The molecules below were run against T1, SYK (Homo sapiens, UniProt P43405) (assay: SYK Flash Plate Assay (enzyme assay)).
T1 construct: 2.5 nM SYK, 400 nM Biotin-Aha-Aha-KEDPDYEWPSAKK and 10 μM ATP
Type: biochemical
Description: The kinase assay is performed either as 384-well Flashplate assay (for e.g. Topcount measurement) or as 384-well Image-Flashplate assay (for LEADseeker measurement).
2.5 nM SYK, 400 nM Biotin-Aha-Aha-KEDPDYEWPSAKK and 10 μM ATP (spiked with 0.3 μCi 33P-ATP/well) are incubated in a total volume of 50 μl (60 mM Hepes, 10 mM MgCl2, 1.2 mM Dithiothreitol, 0.02% Brij35, 0.1% BSA, pH 7.5) with or without test compound for 1 hours at 30° C. The reaction is stopped with 25 μl 200 mM EDTA. After 30 Min at 30° C. the liquid is removed and each well washed thrice with 100 μl 0.9% sodium chloride solution. Non-specific reaction is determined in presence of 0.1 μM Staurosporine. Radioactivity is measured with Topcount (when using Flashplates) or with LEADseeker (when using Image-Flashplates) respectively. Results (e.g. IC50-values) are calculated with program tools provided by the IT-department (e.g. Symyx Assay Explorer, Genedata Screener).
`N[C@H]1CCCC[C@H]1NC(=O)c1cccc(-c2ccnc3cc(-c4cccc5c4OCO5)oc23)c1` [Compound A60, N-((1R,2S)-2-amino-cyclohexyl)-3-(2-benzo[1,3]dioxol-4-yl-furo[3,2-b]pyridin-7-yl)-benzamide] gave an IC50 of 0.3 to 3 µM.
In the case of `COc1ccc(-c2ncon2)cc1-c1cc2nccc(-c3cc[nH]n3)c2o1` [Compound A92, 2-(2-methoxy-5-[1,2,4]oxadiazol-3-yl-phenyl)-7-(1H-pyrazol-3-yl)-furo[3,2-b]pyridine], the IC50 is reported as less than 0.1 µM.
Work on `COc1ccc(S(N)(=O)=O)cc1-c1cc2nccc(-c3cc[nH]n3)c2o1` [Compound A82, 4-methoxy-3-[7-(1H-pyrazol-3-yl)-furo[3,2-b]pyridin-2-yl]-benzenesulfonamide] yielded an IC50 of less than 0.1 µM.
`CCc1ccc(OC)cc1-c1cc2nccc(-c3cccc(C(=O)N[C@@H]4CCCC[C@@H]4N)c3)c2o1` [Compound A42, N-((1R,2S)-2-amino-cyclohexyl)-3-[2-(2-ethyl-5-methoxy-phenyl)-furo[3,2-b]pyridin-7-yl]-benzamide] showed an IC50 of 3 to 50 µM.
`COc1ccc(-c2ncon2)cc1-c1cc2nccc(-c3c(OC)cccc3OC)c2o1` [Compound A85, 7-(2,6-dimethoxy-phenyl)-2-(2-methoxy-5-[1,2,4]oxadiazol-3-yl-phenyl)furo[3,2-b]pyridine] was tested, and the IC50 was less than 0.1 µM.
Molecule `COc1cc(-c2cc3nccc(-c4cccc(C(=O)N[C@@H]5CCCC[C@@H]5NC(C)=O)c4)c3o2)cc(OC)c1OC` [Compound A34, N-((1R,2S)-2-acetylamino-cyclohexyl)-3-[2-(3,4,5-trimethoxy-phenyl)furo[3,2-b]pyridin-7-yl]-benzamide] has an IC50 of 3 to 50 µM.
Molecule `CCn1cc(-c2ccnc3cc(-c4cc(C(N)=O)ccc4OC)oc23)cn1` [Compound A63, 3-[7-(1-ethyl-1H-pyrazol-4-yl)-furo[3,2-b]pyridin-2-yl]-4-methoxy-benzamide] has an IC50 of 0.3 to 3 µM.
`COc1cc(-c2cc3nccc(N4CCNCC4)c3o2)cc(OC)c1OC` [Compound A53, 7-piperazin-1-yl-2-(3,4,5-trimethoxy-phenyl)-furo[3,2-b]pyridine] was tested, and the IC50 was 3 to 50 µM.
`COc1ccc(C#N)cc1-c1cc2nccc(-c3cc[nH]n3)c2o1` [Compound A88, 4-methoxy-3-[7-(1H-pyrazol-3-yl)-furo[3,2-b]pyridin-2-yl]-benzonitrile] was tested, and the IC50 was less than 0.1 µM.
For `COc1ccc(C(C)O)cc1-c1ccnc2cc(-c3cc(OC)c(OC)c(OC)c3)oc12` (centres unmarked) [Compound A21, 1-{4-methoxy-3-[2-(3,4,5-trimethoxy-phenyl)-furo[3,2-b]pyridin-7-yl]-phenyl}-ethanol], the IC50 was 0.1 to 0.3 µM.
`COc1cc(-c2cc3nccc(-c4cccc(C(=O)N[C@H]5C[C@H](N)C5)c4)c3o2)cc(OC)c1OC` [Compound A24, N-(3-amino-cyclobutyl)-3-[2-(3,4,5-trimethoxy-phenyl)-furo[3,2-b]pyridin-7-yl]-benzamide] showed an IC50 of 0.3 to 3 µM.
`COc1cc(-c2cc3nccc(-c4cccc(C(=O)NC(C)(C)CO)c4)c3o2)cc(OC)c1OC` [Compound A40, N-(2-hydroxy-1,1-dimethyl-ethyl)-3-[2-(3,4,5-trimethoxy-phenyl)-furo[3,2-b]pyridin-7-yl]-benzamide] showed an IC50 of 0.3 to 3 µM.
`COc1ccc(S(N)(=O)=O)cc1-c1cc2nccc(-c3c(OC)cccc3OC)c2o1` [Compound A78, 3-[7-(2,6-dimethoxy-phenyl)-furo[3,2-b]pyridin-2-yl]-4-methoxybenzenesulfonamide] was tested, and the IC50 was 0.3 to 3 µM.
`COc1cc(O)ccc1-c1cc2nccc(-c3cccc(C(=O)N[C@@H]4CCCC[C@@H]4N)c3)c2o1` [Compound A15, N-((1R,2S)-2-amino-cyclohexyl)-3-[2-(4-hydroxy-2-methoxy-phenyl)furo[3,2-b]pyridin-7-yl]-benzamide] showed an IC50 of 0.3 to 3 µM.
In the case of `COc1cccc(OC)c1-c1ccnc2cc(-c3cc(C(N)=O)ccc3N)oc12` [Compound A107, 4-amino-3-[7-(2,6-dimethoxy-phenyl)-furo[3,2-b]pyridin-2-yl]-benzamide], the IC50 is reported as 0.1 to 0.3 µM.
Molecule `Cc1cc2[nH]ncc2cc1-c1cc2nccc(-c3cccc(C(=O)N[C@@H]4CCCC[C@@H]4N)c3)c2o1` [Compound A45, N-((1R,2S)-2-amino-cyclohexyl)-3-[2-(6-methyl-1H-indazol-5-yl)-furo[3,2-b]pyridin-7-yl]-benzamide] has an IC50 of 0.3 to 3 µM.
`COC[C@@H](N)CNC(=O)c1cccc(-c2ccnc3cc(-c4cc(OC)c(OC)c(OC)c4)oc23)c1` [Compound A26, N—((S)-2-amino-3-methoxy-propyl)-3-[2-(3,4,5-trimethoxy-phenyl)-furo[3,2-b]pyridin-7-yl]-benzamide] showed an IC50 of 3 to 50 µM.
Work on `COc1cc(-c2cc3nccc(NCC4CCCNC4)c3o2)cc(OC)c1OC` (centres unmarked) [Compound A2, Piperidin-3-ylmethyl-[2-(3,4,5-trimethoxy-phenyl)-furo[3,2-b]pyridin-7-yl]-amine] yielded an IC50 of 3 to 50 µM.
`COc1ccc(C(N)=O)cc1-c1cc2nccc(-c3ccnc(N[C@H]4CCCC[C@H]4N)c3)c2o1` [Compound A96, 3-{7-[2-((1S,2R)-2-amino-cyclohexylamino)-pyridin-4-yl]-furo[3,2-b]pyridin-2-yl}-4-methoxy-benzamide] showed an IC50 of less than 0.1 µM.
Molecule `COc1cc(-c2cc3nccc(-c4ccc(N(C)C)cc4)c3o2)cc(OC)c1OC` [Compound A65, dimethyl-{4-[2-(3,4,5-trimethoxy-phenyl)-furo[3,2-b]pyridin-7-yl]-phenyl}-amine] has an IC50 of 3 to 50 µM.
With `COc1cc(-c2cc3nccc(C(N)=O)c3o2)cc(OC)c1OC` [Compound A98, 2-(3,4,5-trimethoxy-phenyl)-furo[3,2-b]pyridine-7-carboxylic acid amide] the IC50 was 0.3 to 3 µM.
In the case of `COc1cc(-c2cc3nccc(-c4cccc(C(=O)N[C@@H]5C[C@@H]5N)c4)c3o2)cc(OC)c1OC` [Compound A64, N-((1R,2S)-2-amino-cyclopropyl)-3-[2-(3,4,5-trimethoxy-phenyl)-furo[3,2-b]pyridin-7-yl]-benzamide], the IC50 is reported as 0.3 to 3 µM.
For `COc1ccc(-c2noc(CN)n2)cc1-c1cc2nccc(-c3c(OC)cccc3OC)c2o1` [Compound A106, C-(3-{3-[7-(2,6-dimethoxy-phenyl)-furo[3,2-b]pyridin-2-yl]-4-methoxy-phenyl}-[1,2,4]oxadiazol-5-yl)-methylamine], the IC50 was less than 0.1 µM.
Work on `COc1ccc(OCCN)cc1-c1cc2nccc(-c3cccc(C(=O)N[C@@H]4CCCC[C@@H]4N)c3)c2o1` [Compound A51, N-((1R,2S)-2-amino-cyclohexyl)-3-{2-[5-(2-amino-ethoxy)-2-methoxy-phenyl]-furo[3,2-b]pyridin-7-yl}-benzamide] yielded an IC50 of 0.3 to 3 µM.
`CCc1ccc(OC)c(-c2cc3nccc(-c4cccc(C(=O)N[C@@H]5CCCC[C@@H]5N)c4)c3o2)c1` [Compound A43, N-((1R,2S)-2-amino-cyclohexyl)-3-[2-(5-ethyl-2-methoxy-phenyl)-furo[3,2-b]pyridin-7-yl]-benzamide] gave an IC50 of 0.3 to 3 µM.
`COc1cc(-c2cc3nccc(-c4cccc(C(=O)NCC(C)(C)N)c4)c3o2)cc(OC)c1OC` [Compound A32, N-(2-amino-2-methyl-propyl)-3-[2-(3,4,5-trimethoxy-phenyl)-furo[3,2-b]pyridin-7-yl]-benzamide] gave an IC50 of 3 to 50 µM.
`COc1ccc(C(=O)NCC(O)CO)cc1-c1cc2nccc(-c3c(OC)cccc3OC)c2o1` (centres unmarked) [Compound A70, N-(2,3-dihydroxy-propyl)-3-[7-(2,6-dimethoxy-phenyl)-furo[3,2-b]pyridin-2-yl]-4-methoxy-benzamide] gave an IC50 of 0.3 to 3 µM.
Molecule `COc1cc(-c2cc3nccc(-c4ccc5[nH]c(=O)n(CCN)c5c4)c3o2)cc(OC)c1OC` [Compound A6, 1-(2-amino-ethyl)-6-[2-(3,4,5-trimethoxy-phenyl)-furo[3,2-b]pyridin-7-yl]-1,3-dihydro-benzoimidazol-2-one] has an IC50 of 3 to 50 µM.
Work on `CCc1ccc(OC)c(-c2cc3nccc(-c4ccc5[nH]cnc5c4)c3o2)c1` [Compound A41, 7-(1H-benzoimidazol-5-yl)-2-(5-ethyl-2-methoxy-phenyl)-furo[3,2-b]pyridine] yielded an IC50 of 0.3 to 3 µM.
For `COc1ccc(-c2nnn[nH]2)cc1-c1cc2nccc(-c3c(OC)cccc3OC)c2o1` [Compound A84, 7-(2,6-dimethoxy-phenyl)-2-[2-methoxy-5-(1H-tetrazol-5-yl)-phenyl]-furo[3,2-b]pyridine], the IC50 was less than 0.1 µM.
For `COc1cc(-c2cc3nccc(-c4ccnc(NC[C@@H]5CCCNC5)c4)c3o2)cc(OC)c1OC` [Compound A7, (R)-1-piperidin-3-ylmethyl-{4-[2-(3,4,5-trimethoxy-phenyl)-furo[3,2-b]pyridin-7-yl]-pyridin-2-yl}-amine], the IC50 was 0.3 to 3 µM.
Molecule `COC[C@H](N)CNC(=O)c1cccc(-c2ccnc3cc(-c4cc(OC)c(OC)c(OC)c4)oc23)c1` [Compound A5, N—((R)-2-amino-3-methoxy-propyl)-3-[2-(3,4,5-trimethoxy-phenyl)-furo[3,2-b]pyridin-7-yl]-benzamide] has an IC50 of 0.3 to 3 µM.
Molecule `COc1ccc(C(N)=O)cc1-c1cc2nccc(-c3cnc[nH]3)c2o1` [Compound A93, 3-[7-(3H-imidazol-4-yl)-furo[3,2-b]pyridin-2-yl]-4-methoxy-benzamide] has an IC50 of 0.1 to 0.3 µM.
With `COc1cc(-c2cc3nccc(-c4cccc(C(=O)NC[C@@H](O)CO)c4)c3o2)cc(OC)c1OC` [Compound A17, N—((R)-2,3-dihydroxy-propyl)-3-[2-(3,4,5-trimethoxy-phenyl)-furo[3,2-b]pyridin-7-yl]-benzamide] the IC50 was 3 to 50 µM.
Molecule `COCC(O)CNC(=O)c1cccc(-c2ccnc3cc(-c4cc(OC)c(OC)c(OC)c4)oc23)c1` (centres unmarked) [Compound A16, N-(2-hydroxy-3-methoxy-propyl)-3-[2-(3,4,5-trimethoxy-phenyl)-furo[3,2-b]pyridin-7-yl]-benzamide] has an IC50 of 3 to 50 µM.

Source: US20150038527A1, “FUROPYRIDINE DERIVATIVES” (Merck Patent GmbH, priority 2012, published 2015)
